Data on one compound can be found in patent US12398128B2, “Physics-driven discovery of novel small therapeutic compounds for use as a BCL-2 inhibitor” (BAHCESEHIR UNIVERSITESI, priority 2021, dated 2025).

The assay has as its system HCT-116 colon cancer cell line. Nature of the assay: MTT cell proliferation assay on HCT-116 cells. Type of assay: cell-based. The protocol:
For cell culture experiments various cancer cell lines, HCT-116 colon cancer, U87-MG glial tumor, MCF7 breast cancer cell lines were used. Cells were seeded with high glucose DMEM medium (Biosera) supplemented with 10% FBS (Gibco) and 1× penicillin/streptomycin (Multicell). Twenty-four hours prior to molecule treatment, 10,000 cells were seeded into each well of 24-well cell culture plates. Molecules were used by preparing 4 mM stock solution in DMSO (Amresco). For molecule treatment, molecule stock solutions were diluted in DMEM with 10% FBS and added onto cells in each corresponding well. Final concentration of vehicle DMSO was 2% at maximum. Therefore, the vehicle group in experiments only included maximum of 2% DMSO concentration. We calculated the number of cells to be seeded to make sure that none of the cells reaches more than 60% confluency during the treatment period, as higher plate confluency levels would slow down cell proliferation independently from the molecule treatment.
Values of half-maximal inhibitory concentration were (IC50) determined by MTT cell proliferation assays. Different concentrations of molecules ranging between 10^-9 to 10^-4 M were tested on HCT-116 cell lines with single treatment. 570 nm absorbance values were recorded and IC50 values were calculated by dose response-inhibition curves and nonlinear regression analysis on GraphPad Prism 8 software. For cell proliferation assays we performed five days experiments and repeated experiments at least three times with all cell lines. […] Therefore, three days results were presented. MTT analysis were performed on 24-well plates with initially 1×10^4 cells/well, grown overnight, and then treated with the selected molecules with different concentrations for at least 3 days. Following the initial incubation day, molecules were added and after incubation with MTT at 37° C. for 4 hours, formazan was solubilized with DMSO (Sigma-Aldrich, St. Louis, USA) and absorbance was measured at 570 nm. […] The IC50 value of compound of formula I was determined to be 22 μm (FIG. 1).
In general terms: Tetrazolium assays rely on reduction of a dye to a coloured formazan, in cell work by metabolically active cells.

In the case of `O=C(CSc1nc2ccc(N3C(=O)c4ccccc4C3=O)cc2s1)c1ccc(-c2ccccc2)cc1` [compound of formula I], the “cell morphology of treated HCT-116 cells” value (HCT-116 cells treated with compound versus vehicle group) is “apoptotic cell structures”. For the same compound, the “proliferation of HCT-116 cells versus vehicle group (FIG. 1)” value (HCT-116 cells, MTT, cell viability over time, vehicle max 2% DMSO) is reported as “reduced proliferation”. The IC50 (Homo sapiens, 72 h, HCT-116 cells, single treatment, 10^-9 to 10^-4 M, 570 nm absorbance, three days results, read-out: IC50 (half-maximal inhibitory concentration), MTT cell proliferation assay) was determined as 22 µM.
